Here are results for 16 molecules from article PMC6511888, “Synthesis, Biological Evaluation, and Molecular Modeling Studies of New Thiadiazole Derivatives as Potent P2X7 Receptor Inhibitors” (Frontiers in Chemistry, 2019).

The target of one data set is T1, P2X7R (Mus musculus, UniProt Q9Z1M0).
T1 construct: plated for 24 h before dye uptake assays, whole-cell patch clamp experiments, and IL-1β release assays; endogenous in cells; host or cells: mouse (Swiss Webster) peritoneal macrophages
T1 sequence (Q9Z1M0 1-595): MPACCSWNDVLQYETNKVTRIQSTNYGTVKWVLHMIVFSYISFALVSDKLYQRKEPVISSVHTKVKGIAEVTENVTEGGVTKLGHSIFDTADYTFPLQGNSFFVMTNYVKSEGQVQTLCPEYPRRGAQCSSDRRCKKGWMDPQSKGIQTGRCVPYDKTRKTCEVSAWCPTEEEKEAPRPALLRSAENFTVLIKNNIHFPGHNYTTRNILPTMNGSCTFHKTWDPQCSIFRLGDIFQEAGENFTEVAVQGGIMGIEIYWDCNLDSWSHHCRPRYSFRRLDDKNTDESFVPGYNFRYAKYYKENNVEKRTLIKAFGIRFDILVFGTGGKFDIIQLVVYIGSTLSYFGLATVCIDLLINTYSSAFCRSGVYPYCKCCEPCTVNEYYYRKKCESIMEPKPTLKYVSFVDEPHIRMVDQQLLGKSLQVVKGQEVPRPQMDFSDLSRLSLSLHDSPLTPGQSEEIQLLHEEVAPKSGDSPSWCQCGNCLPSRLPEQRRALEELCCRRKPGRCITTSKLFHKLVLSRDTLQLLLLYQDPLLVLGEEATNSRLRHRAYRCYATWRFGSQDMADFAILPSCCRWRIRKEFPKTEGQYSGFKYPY
Put plainly: Dye uptake assay (propidium iodide) in mouse peritoneal macrophages. It is filed as cell-based. The conditions noted are these: 10 μM; percentage relative to the maximum uptake of propidium stimulated by 1 mM ATP only; mean ± SD. How it is done: Our protocols adhered to the Ethical Principles in Animal Experimentation adopted by the Brazilian College of Animal Experimentation and approved by the FIOCRUZ Research Ethics Committee (Faria et al., [2005]; number L039- 2016). Male mouse (Swiss Webster) peritoneal macrophages were collected from peritoneal cavity lavage and plated for 24 h before dye uptake assays, whole-cell patch clamp experiments, and IL-1β release assays.
HEK-293 cells transfected with hP2X7R and mouse peritoneal macrophages were plated at 2.5 × 10^6 or 5 × 10^5 cells/ml, respectively, in 96-well culture plates containing DMEM with 10% FBS and anti-biotics (50 U/ml penicillin and […] streptomycin) in a humidified 5% CO2 atmosphere at 37°C for 24 h (Faria et al., [2018]).
[…] In the last 5 min of ATP incubation, propidium iodide for macrophages (PI; 750 nM) or ethidium bromide (EB; 25 μM) for HEK-293 cells was added to all wells. PI dye was excited at a wavelength of 530 nm, and its fluorescence emission was read at a wavelength of 590 nm using an M5 plate reader (Molecular Devices). EB dye was excited at a wavelength of 530 nm and emitted at a wavelength of 620 nm.

Data set [1] has as its system mouse peritoneal macrophages. Description: LDH release assay (toxicity). It is filed as cell-based. The conditions noted are these: 10 μM; relative to maximum LDH release caused by 0.05% Triton X-100; cell type not given; mean ± SD. How it is done: Mouse peritoneal macrophages (5 × 10^5 cells) and HEK-293 cells transfected with P2X7R (5 × 10^5 cells) were plated in a 96-well-plate for 24 h before the treatment. […] The supernatant collected in this assay was used to measure the presence of LDH in the media using a cytotoxicity detection kit (Sigma kit for LDH) according to the manufacturer's instructions (Faria et al., [2018]).

The inhibition is the relative decrease from the control value, in per cent. A high value points to strong suppression. One may read the melting point as the temperature of the solid-liquid transition.

The molecule `Cc1cc(C)n(-c2nnc(-c3ccccc3)s2)n1` [Compound 11a] yielded a melting point of 170 to 171 °C. Also, on P2X7R, 10 µM produced 92.5 ± 0.3% inhibition. Besides, the “% LDH release” value in data set [1] is 34.1 ± 2%.

Turning to `N#Cc1cnn(-c2nnc(-c3ccc(Cl)cc3)s2)c1N` [Compound 9d], the melting point was greater than 300 °C. 10 µM produced 62.2 ± 4.02% inhibition on P2X7R. The “% LDH release” value in data set [1] is recorded as 46.3 ± 5.12%.

As for `CC1(O)CC(C(F)(F)F)=NN1c1nnc(-c2ccc(Cl)cc2)s1` (centres unmarked) [Compound 13d], the melting point is 184 to 185 °C. This molecule displayed an inhibition at 10 µM against P2X7R of 71 ± 0.2%. Moreover, the “% LDH release” value in data set [1] is 38.5 ± 6.2%.

As for `CCOC(=O)c1cnn(-c2nnc(-c3ccc(F)cc3)s2)c1N` [Compound 9g], the melting point fell in the range of 250 to 251 °C. On P2X7R, this molecule showed an inhibition at 10 µM of 90.8 ± 1.1%. Further, the “% LDH release” value in data set [1] is on record as 22.6 ± 0.3%.

For the molecule `Cc1cc(C)n(-c2nnc(-c3ccc(Cl)cc3)s2)n1` [Compound 11d], the melting point fell in the range of 202 to 203 °C. At P2X7R, this molecule displayed an inhibition at 10 µM of 69.8 ± 0.7%. The “% LDH release” value in data set [1] was determined as 36.94 ± 10.6%.

`CC1(O)CC(C(F)(F)F)=NN1c1nnc(-c2ccc(F)cc2)s1` (centres unmarked) [Compound 13c] yielded a melting point of 182 to 183 °C. Besides, testing at 10 µM at P2X7R gave an inhibition of 92 ± 0.4%. Further, the “% LDH release” value in data set [1] was determined as 45.3 ± 1.4%.

As for `Cc1cc(C(F)(F)F)nn1-c1nnc(-c2ccc(Cl)cc2)s1` [Compound 14d], the melting point was 147 to 148 °C. The same molecule showed an inhibition at 10 µM against P2X7R of 54.7 ± 0.5%. Moreover, the “% LDH release” value in data set [1] came out at 43 ± 5%.

In turn, `Cc1cc(C(F)(F)F)nn1-c1nnc(-c2ccc(F)cc2)s1` [Compound 14c] returned a melting point of 149 to 150 °C. The molecule also gave an inhibition at 10 µM at P2X7R of 92.5 ± 0.4%. For the same molecule, the “% LDH release” value in data set [1] was 10.6 ± 0.5%.

`N#Cc1cnn(-c2nnc(-c3ccccc3)s2)c1N` [Compound 9a] came in with a melting point of 234 to 235 °C. Moreover, on P2X7R, the inhibition at 10 µM was 89.2 ± 2.2%. The “% LDH release” value in data set [1] stood at 58.1 ± 4.8%.

`Cc1cc(C)n(-c2nnc(-c3ccccc3Cl)s2)n1` [Compound 11b] registered a melting point of 163 to 165 °C. Moreover, the inhibition at 10 µM against P2X7R is 89.7 ± 2.6%. The “% LDH release” value in data set [1] was 45.7 ± 1.7%.

For `Cc1cc(C(F)(F)F)nn1-c1nnc(-c2ccccc2Cl)s1` [Compound 14b], the melting point lay within 139 to 140 °C. At P2X7R, this molecule gave an inhibition at 10 µM of 92 ± 2%. Further, in data set [1], the “% LDH release” value is listed as 26.6 ± 1.2%.

In turn, `CCOC(=O)c1cnn(-c2nnc(-c3ccccc3)s2)c1N` [Compound 9e] returned a melting point of 165 to 167 °C. In addition, 10 µM produced 90.2 ± 0.4% inhibition against P2X7R. Moreover, the “% LDH release” value in data set [1] is given as 36.3 ± 11.0%.

In the case of `Cc1cc(C(F)(F)F)nn1-c1nnc(-c2ccccc2)s1` [Compound 14a], the melting point lay in the range of 163 to 164 °C. In addition, the inhibition at 10 µM on P2X7R was found to be 91 ± 1%. Further, in data set [1], the “% LDH release” value worked out at 32 ± 1%.

The molecule `CCOC(=O)c1cnn(-c2nnc(-c3ccc(Cl)cc3)s2)c1N` [Compound 9h] returned a melting point of 252 to 253 °C. At P2X7R, this molecule yielded an inhibition at 10 µM of 64 ± 3.7%. In addition, the “% LDH release” value in data set [1] was 15 ± 1.9%.

Consider `CC1(O)CC(C(F)(F)F)=NN1c1nnc(-c2ccccc2Cl)s1` (centres unmarked) [Compound 13b], for which, on P2X7R, the inhibition at 10 µM was 90.7 ± 1.6%. Moreover, in data set [1], the “% LDH release” value is listed as 19.6 ± 0.6%.

`CC1(O)CC(C(F)(F)F)=NN1c1nnc(-c2ccccc2)s1` (centres unmarked) [Compound 13a] registered a melting point of 183 to 185 °C. This molecule also registered an inhibition at 10 µM on P2X7R of 90.5 ± 1.4%. In data set [1], the “% LDH release” value turned out to be 8 ± 0.6%.
